{"source": "ChEMBL document CHEMBL1132502", "about": "“Synthesis of a fluorescent microgonotropen (FMGT-1) and its interactions with the dodecamer d(CCGGAATTCCGG)” (Bioorg Med Chem Lett, 1999)", "tested_on": "Nucleic Acid", "assay": "Association constant (Ka) with DNA dodecamer d(CCGGAATTCCGG) was determined", "format": "nucleic-acid assay"}
{"smiles": "CN1CCN(c2ccc3[nH]c(-c4ccc5[nH]c(-c6ccc(O)cc6)nc5c4)nc3c2)CC1", "values": [{"measurement": "Ka", "result": 1.3, "unit": "M⁻¹"}]}
